Measured values taken from PMC11748363, “Antimicrobial and Antiproliferative Properties of 2‐Phenyl‐N‐(Pyridin‐2‐yl)acetamides” (Chemical Biology & Drug Design, 2025).
In brackets after ≈: the same amount, converted by molar mass. Read-outs that look alike come from different tables or passages of the source.

Key:
[1] = test system: Staphylococcus epidermidis CCM 4418, ATCC 12228; test: Antibacterial microdilution broth MIC, SE; format: cell-based
[2] = test system: Klebsiella pneumoniae CCM 4415, ATCC 10031; test: Antibacterial microdilution broth MIC, KP
[3] = test system: Candida parapsilosis CCM 8260, ATCC 22019; test: Antifungal microdilution broth MIC, CP; details: Lodderomyces parapsilosis
[4] = test system: Aspergillus fumigatus ATCC 204305; test: Antifungal microdilution broth MIC, AF
[5] = test system: HepG2 cell line; test: Cytotoxicity CellTiter 96, HepG2; format: cell-based, human; details: Homo sapiens, HepG2, 24 h, 24 h incubation; ^c compound precipitated in the testing medium; ^d over the limit of tested concentrations
[6] = test system: Candida albicans CCM 8320, ATCC 24433; test: Antifungal microdilution broth MIC, CA
[7] = test system: Acinetobacter baumannii DSM 30007, ATCC 19606; test: Antibacterial microdilution broth MIC, ACI; format: cell-based
[8] = test system: Escherichia coli CCM 3954, ATCC 25922; test: Antibacterial microdilution broth MIC, EC; format: cell-based
[9] = test system: Lichtheimia corymbifera CCM 8077; test: Antifungal microdilution broth MIC, LC
[10] = test system: Aspergillus flavus CCM 8363; test: Antifungal microdilution broth MIC, AFla
[11] = test system: Pseudomonas aeruginosa CCM 3955, ATCC 27853; test: Antibacterial microdilution broth MIC, PA; format: cell-based
[12] = test system: Candida tropicalis CCM 8264, ATCC 750; test: Antifungal microdilution broth MIC, CT
[13] = test system: Trichophyton interdigitale CCM 8377, ATCC 9533; test: Antifungal microdilution broth MIC, TI; details: Trichophyton interdigitale
[14] = test system: Mycolicibacterium smegmatis DSM 43465; test: Antimycobacterial microdilution broth MIC (resazurin), M. smegmatis; format: cell-based; details: DSM43465, read-out: MIC M. smegmatis
[15] = test system: Enterococcus faecalis CCM 4224, ATCC 29212; test: Antibacterial microdilution broth MIC, EF; format: cell-based
[16] = test system: Staphylococcus aureus CCM 4223, ATCC 29213; test: Antibacterial microdilution broth MIC, SA; format: cell-based; details: Staphylococcus aureus
[17] = test system: Mycobacterium tuberculosis H37Ra; test: Antimycobacterial microdilution broth MIC (resazurin), Mtb H37Ra; format: cell-based; details: for MIC: Mycobacterium tuberculosis, H37RA, read-out: MIC Mtb H37Ra; for SI (selectivity index): SI = HepG2 IC50 (μM)/MIC MtbH37Ra (μM), calculated for compounds with MIC ≤ 31.25 μg/mL
[18] = test system: Staphylococcus aureus subsp. aureus CCM 4750, ATCC 43300 (MRSA); test: Antibacterial microdilution broth MIC, MRSA; format: cell-based; details: Staphylococcus aureus
[19] = test system: Candida krusei CCM 8271, ATCC 6258; test: Antifungal microdilution broth MIC, CK; details: Pichia kudriavzevii
[20] = test system: Mycolicibacterium aurum DSM 43999; test: Antimycobacterial microdilution broth MIC (resazurin), M. aurum; format: cell-based; details: DSM43999, read-out: MIC M. aurum
[21] = ATCC204305, 24 h, read-out: MIC AF 24h
[22] = ATCC204305, 48 h, read-out: MIC AF 48h
[23] = CCM8077, 24 h, read-out: MIC LC 24h
[24] = CCM8077, 48 h, read-out: MIC LC 48h
[25] = CCM8363, 24 h, read-out: MIC AFla 24h
[26] = CCM8363, 48 h, read-out: MIC AFla 48h

Structure (SMILES)	MIC ([1]; 24 h, read-out: MIC SE 24h) [µM]	MIC ([1]; 48 h, read-out: MIC SE 48h) [µM]	MIC KP 24h [2] [µM]	MIC KP 48h [2] [µM]	MIC ([3]; 24 h, read-out: MIC CP 24h) [µM]	MIC ([3]; 48 h, read-out: MIC CP 48h) [µM]	MIC [4, 21] [µM]	MIC [4, 22] [µM]	IC50 [5] [µM]	MIC ([6]; 24 h, read-out: MIC CA 24h) [µM]	MIC ([6]; 48 h, read-out: MIC CA 48h) [µM]	MIC ([7]; 24 h, read-out: MIC ACI 24h) [µM]	MIC ([7]; 48 h, read-out: MIC ACI 48h) [µM]	MIC ([8]; 24 h, read-out: MIC EC 24h) [µM]	MIC ([8]; 48 h, read-out: MIC EC 48h) [µM]	MIC [9, 23] [µM]	MIC [9, 24] [µM]	MIC [10, 25] [µM]	MIC [10, 26] [µM]	MIC ([11]; 24 h, read-out: MIC PA 24h) [µM]	other results
O=C(Cc1ccccc1)Nc1ccc(Cl)cn1 [Compound 2]	> 500	> 500	> 500	> 500	> 500	> 500	> 500	> 500	> 100	> 500	> 500	> 500	> 500	> 500	> 500	> 500	> 500	> 500	> 500	> 500	MIC ([11]; 48 h, read-out: MIC PA 48h): > 500 µM; MIC ([12]; 24 h, read-out: MIC CT 24h): > 500 µM; MIC ([12]; 48 h, read-out: MIC CT 48h): > 500 µM; MIC ([13]; 72 h, read-out: MIC TI 72h): > 500 µM; MIC ([13]; 120 h, read-out: MIC TI 120h): > 500 µM; MIC [14]: 500 µg/mL (≈ 2030 µM); MIC ([15]; 24 h, read-out: MIC EF 24h): > 500 µM; MIC ([15]; 48 h, read-out: MIC EF 48h): > 500 µM; MIC ([16]; 24 h, read-out: MIC SA 24h): > 500 µM; MIC ([16]; 48 h, read-out: MIC SA 48h): > 500 µM; MIC ([17]; Calculated from MIC (μg/mL)): 63.3 µM; MIC [17]: 15.6 µg/mL; SI (selectivity index) [17]: > 1.6; MIC ([18]; 24 h, read-out: MIC MRSA 24h): > 500 µM; MIC ([18]; 48 h, read-out: MIC MRSA 48h): > 500 µM; MIC ([19]; 24 h, read-out: MIC CK 24h): > 500 µM; MIC ([19]; 48 h, read-out: MIC CK 48h): > 500 µM; MIC [20]: 500 µg/mL (≈ 2030 µM)
O=C(Cc1ccc(Cl)cc1)Nc1ccccn1 [Compound 19]	125 (≈ 30.8 µg/mL)	125 (≈ 30.8 µg/mL)	> 500	> 500	500 (≈ 123 µg/mL)	500 (≈ 123 µg/mL)	> 500	> 500	333	> 500	> 500	> 500	> 500	> 500	> 500	> 500	> 500	> 500	> 500	> 500	MIC ([11]; 48 h, read-out: MIC PA 48h): > 500 µM; MIC ([12]; 24 h, read-out: MIC CT 24h): > 500 µM; MIC ([12]; 48 h, read-out: MIC CT 48h): > 500 µM; MIC ([13]; 72 h, read-out: MIC TI 72h): 250 µM (≈ 61.7 µg/mL); MIC ([13]; 120 h, read-out: MIC TI 120h): 250 µM (≈ 61.7 µg/mL); MIC [14]: 31.2 µg/mL (≈ 127 µM); MIC ([15]; 24 h, read-out: MIC EF 24h): > 500 µM; MIC ([15]; 48 h, read-out: MIC EF 48h): > 500 µM; MIC ([16]; 24 h, read-out: MIC SA 24h): 500 µM (≈ 123 µg/mL); MIC ([16]; 48 h, read-out: MIC SA 48h): 500 µM (≈ 123 µg/mL); MIC ([17]; Calculated from MIC (μg/mL)): 127 µM; MIC [17]: 31.2 µg/mL; SI (selectivity index) [17]: 2.6; MIC ([18]; 24 h, read-out: MIC MRSA 24h): > 500 µM; MIC ([18]; 48 h, read-out: MIC MRSA 48h): > 500 µM; MIC ([19]; 24 h, read-out: MIC CK 24h): 500 µM (≈ 123 µg/mL); MIC ([19]; 48 h, read-out: MIC CK 48h): 500 µM (≈ 123 µg/mL); MIC [20]: > 500 µg/mL
